In US20260355184A1, “SMALL MOLECULE DEGRADERS OF HIV-1 TAT PROTEIN” (priority 2022, published 2026):
“Also recorded” adds a separate entry of the source.

Legend:
[1] = tested on: OM10.1 cells; assay: Cell-associated HIV Gag mRNA expression / HIV transcription in latently infected OM10.1 cells; format: cell-based; conditions: 96-day period with ARVs, n=1
Experimental: (§1) Next, the activity of these leads against HIV infection was evaluated using the reporter cell line HeLa-CD4-LTR-LacZ, which stably expresses the β-galactosidase (β-Gal) gene under the control of the HIV 5′ LTR. The HIV NL4.3 strain was used for these studies and β-Gal activity was measured 72 hrs post infection (FIG. 3A). Cytotoxicity assays using Cell-Titer-Glo were performed in parallel to assess cell viability (FIG. 3A). […] Their anti-HIV activity was further assessed in acute replication of Jurkat T cells with the NL4.3 strain (FIG. 3A). […] These OM10.1 cells contain a single integrated wild-type provirus, while ACH-2 cells contain a single integrated provirus with a TAR mutation C37T, defective Tat-TAR feedback loop (FIG. 3B).

[2] = tested on: OM10.1 and ACH-2 cells; assay: Toxicity / cell viability in latent cell models; conditions: OM10.1 and ACH2; 96-day period with ARVs
Experimental: as §1

[3] = target: Tat protein (ubiquitin chains) (Human immunodeficiency virus type 1 (HXB3 ISOLATE), UniProt P69698); assay: Ubiquitin linkage assay: HA-Ubiquitin lysine mutants and Flag-Tat in HEK293T, western blot; format: cell-based, HIV; conditions: HA-Ubiquitin mutants, TT-44881 60 μM, 24 hours
Chain of Tat protein (ubiquitin chains) (P69698 whole entry): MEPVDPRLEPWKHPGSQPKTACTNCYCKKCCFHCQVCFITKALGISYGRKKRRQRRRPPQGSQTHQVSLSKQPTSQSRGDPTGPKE
From the text: FIG. 10. TT-44881's anti-HIV activity engages heterogenous lysine linked Ubiquitin chains (K48 and K33 chains). A. Example of covalent binding of the Ubiquitin chains to the lysine residues of the Tat protein. B. Schematic of the different Ubiquitin chains that can be linked to the Tat protein to induce its degradation or stabilization. C. […] HEK293T cells overexpressing HA-Ubiquitin proteins (which have each lysine singly mutated to arginine or only one lysine present) and Flag-Tat protein were treated with TT-44881. Western blot assays were performed 24 hours later. TT-44881: 60 μM. Shown is representative of n=3.
Which Ubiquitin linkage engaged in the TT-44881 degradation activity was also investigated. HEK293T cells were transfected with Tat protein and HA-Ubiquitin which has each lysine singly mutated to arginine or only one lysine present.

| Structure (SMILES) | HIV transcription (in words) [1] | cell viability [2] | ubiquitin chain linkages engaged in Tat degradation [3] |
| --- | --- | --- | --- |
| COCCOc1ccc(C(F)(F)F)cc1NC(=O)Cn1cc(C(F)(F)F)cc(Cl)c1=O [TT-44863] | inhibit HIV transcription | without affecting cell viability |  |
| O=C(CCCCN1CCCC1=O)c1nn(-c2ccccc2)c2c1CCC2 [TT-44881] | inhibit HIV transcription | without affecting cell viability | K48-linked ubiquitin chains are involved in TT-44881 activity, K33 linked ubiquitin chains also seemed to be engaged; also recorded: blocks TT-44881 induced Tat degradation |
